Experimental data: ChEMBL document CHEMBL1131781, “Design and synthesis of diaminopyrrolidinone inhibitors of human osteoclast cathepsin K” (Bioorg Med Chem Lett, 1999)

Target: T1, Cathepsin K (Homo sapiens, UniProt P43235)
T1 sequence (P43235 whole entry): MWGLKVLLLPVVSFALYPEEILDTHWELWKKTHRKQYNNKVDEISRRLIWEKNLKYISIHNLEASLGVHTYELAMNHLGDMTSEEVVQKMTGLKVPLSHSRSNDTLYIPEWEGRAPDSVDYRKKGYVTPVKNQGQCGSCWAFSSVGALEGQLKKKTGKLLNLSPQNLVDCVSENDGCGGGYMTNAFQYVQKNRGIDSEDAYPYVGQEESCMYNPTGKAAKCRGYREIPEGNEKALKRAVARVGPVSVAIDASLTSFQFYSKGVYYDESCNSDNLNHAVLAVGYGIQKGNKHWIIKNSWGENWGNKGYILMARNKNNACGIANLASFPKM
Test: Compound was tested for its inhibitory activity against human osteoclast cathepsin K

| Ki [nM] | SMILES |
| --- | --- |
| 33 | CC(C)C[C@H](NC(=O)OCc1ccccc1)c1nc(C(=O)NN2CC[C@@](CC(C)C)(NC(=O)OCc3ccccc3)C2=O)cs1 |
| 330 | CC(C)C[C@H](NC(=O)OCc1ccccc1)c1nc(C(=O)NN2CC[C@@H](NC(=O)OCc3ccccc3)C2=O)cs1 |
| 10 | CC(C)C[C@H](NC(=O)OCc1ccccc1)C(=O)NNC(=O)c1csc([C@H](CC(C)C)NC(=O)OCc2ccccc2)n1 |
